Legend:
Smn protein = Smn protein assay in human motor neurons; type: cell-based; settings: human motor neurons derived from SMA iPS cells, 72 hours, increasing concentrations, FIG. 10
Method: Smn immunofluorescent confocal microscopy is used to quantify the level of Smn protein in human motor neurons treated with test compounds.
Human motor neurons derived from SMA iPS cells (Ebert et al., Nature, 2009, […]; and, Rubin et al., BMC Biology, 2011, 9:42) are treated with test compound at various concentrations for 72 hours. The level of Smn protein in the cell nucleus is quantified using Smn immunostaining and confocal fluorescence microscopy essentially as described in Makhortova et al., Nature Chemical Biology, 2011, 7:544. The level of Smn protein in compound-treated samples is normalized to that in vehicle-treated samples and plotted as a function of the compound concentration.

[1] = test system: full length and Δ7 SMN2 mRNA; experiment: SMN2 mRNA RT-qPCR splicing assay in animal tissues; type: in vivo; settings: C/C-allele SMA mice, brain and muscle, 10 mg/kg oral BID for 10 days, FIG. 6
Method: The reverse transcription-quantitative PCR-based (RT-qPCR) assay is used to quantify the levels of the full length and Δ7 SMN2 mRNA in tissues from mice treated with test compound.
C/C-allele SMA mice are treated by oral gavage two times per day (BID) for 10 days with test compounds re-suspended in 0.5% HPMC and 0.1% Tween-80. Tissue samples were collected and snap frozen for RNA purification.
Tissue samples (20-40 mg) are homogenized in QIAzol Lysis Reagent for 2 minutes at 20 Hz in the TissueLyser II using one stainless steel bead. After addition of chloroform, the homogenate is separated into aqueous and organic phases by centrifugation. RNA partitioned to the upper, aqueous phase is extracted and ethanol is added to provide appropriate binding conditions. The sample is then applied to the RNeasy spin column from the RNeasy Mini Kit, where total RNA binds to the membrane. The RNA is eluted in RNase-free water then stored at −20° C. and subsequently analyzed using the TaqMan RT-qPCR on the 7900HT Thermocycler. Total RNA is diluted ten fold and 2.5 μL, of the diluted sample is added to the TaqMan RT-qPCR mixture.
SMN2 spliced products are identified using the following primers and probes in Table 7. Primer SMN FL Forward B (SEQ ID NO. 7) hybridizes to a nucleotide sequence in exons 7 and 8, primer SMN Δ7 Forward B (SEQ ID NO. 8) hybridizes to a nucleotide sequence in exons 6 and 8, primer SMN Reverse B (SEQ ID NO. 9) hybridizes to a nucleotide sequence in exon 8, probe SMN Probe B (SEQ ID NO. 10) hybridizes to a nucleotide sequence in exon 8. These primers and probe hybridize to nucleotide sequences common to human SMN1 and SMN2 mRNA. Since the SMA patient cells used in Example 5 contain only the SMN2 gene, RT-qPCR can quantify only SMN2 full-length and Δ7 mRNA.
The SMN forward and reverse primers are used at final concentrations of 0.4 μM. The SMN probe is used at a final concentration of 0.15 μM. The SMN-GAPDH Mix (10 μL, total volume) is prepared by combining 5 μL of 2×RT-PCR buffer, 0.4 μL of 25×RT-PCR enzyme mix, 0.5 μL of 20×GAPDH primer-probe mix, 1.505 μL of water, 2.5 μL of RNA solution, 0.04 μL of 100 μM forward primer, 0.04 μL of 100 μM reverse primer, and 0.015 μL of 100 μM SMN probe. […]
The increase of SMN2 FL and decrease in SMN2 Δ7 mRNA relative to those in tissues from animals treated with vehicle control are determined from real-time PCR data using a modified ΔΔCt method (as described in Livak and Schmittgen, Methods, 2001, 25:402-8). The amplification efficiency (E) is calculated from the slope of the amplification curve for SMN2 FL, SMN2 Δ7, and GAPDH individually. The abundances of SMN2 FL, SMN2 Δ7, and GAPDH are then calculated as (1+E)^−Ct, where Ct is the threshold value for each amplicon. […]

Row | Structure (SMILES) | Smn protein in the nucleus (Smn protein) | SMN2 FL mRNA in tissues [1] | SMN2 Δ7 mRNA in tissues [1]
1 | Cc1cn2cc(-c3cc4ccc(N5CCN(C)CC5)cc4c(=O)o3)nc2c(C)n1 [Cpd 65, 3-(6,8-dimethylimidazo[1,2-a]pyrazin-2-yl)-7-(4-methylpiperazin-1-yl)-1H-isochromen-1-one] | progressively more Smn protein in the nucleus | substantially more SMN2 FL mRNA | less SMN2 Δ7 mRNA
2 | Cc1cn2cc(-c3cc4ccc(N5CCN6CCC[C@H]6C5)cc4c(=O)o3)nc2c(C)n1 [Cpd 69, 3-(6,8-dimethylimidazo[1,2-a]pyrazin-2-yl)-7-[(8aS)-hexahydropyrrolo[1,2-a]pyrazin-2(1H)-yl]-1H-isochromen-1-one] | progressively more Smn protein in the nucleus | substantially more SMN2 FL mRNA | less SMN2 Δ7 mRNA

Source: patent US9399649B2, “Compounds for treating spinal muscular atrophy” (PTC Therapeutics Inc., priority 2012, dated 2016)
